Experiments:
CapaR = biological target: T1, CapaR (Drosophila melanogaster, UniProt Q8ITC7); test: Measurement of intracellular Ca2+ in S2 cells transfected with CapaR (agonist response); assay type: cell-based; conditions: 10^−7 M; activity normalised to that of native Capa2 (designated 100%)
T1 construct: transiently transfected with the apoaequorin ORF; expressed in transfected cells; host or cells: Drosophila melanogaster S2 cells, transient transfection, expression induced with CuSO4
T1 sequence (Q8ITC7 1-477): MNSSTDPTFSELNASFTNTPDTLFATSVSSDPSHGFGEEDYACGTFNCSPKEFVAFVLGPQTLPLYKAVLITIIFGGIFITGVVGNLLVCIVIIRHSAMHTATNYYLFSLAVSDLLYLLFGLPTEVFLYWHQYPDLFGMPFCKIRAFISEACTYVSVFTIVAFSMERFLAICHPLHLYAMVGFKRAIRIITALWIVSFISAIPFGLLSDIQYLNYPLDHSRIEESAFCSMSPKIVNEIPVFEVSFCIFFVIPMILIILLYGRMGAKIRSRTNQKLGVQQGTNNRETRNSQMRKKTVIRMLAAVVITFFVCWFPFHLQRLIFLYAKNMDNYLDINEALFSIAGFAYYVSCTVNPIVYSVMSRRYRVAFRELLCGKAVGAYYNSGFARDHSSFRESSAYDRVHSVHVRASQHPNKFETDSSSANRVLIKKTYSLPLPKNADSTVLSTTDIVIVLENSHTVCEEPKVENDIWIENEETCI
Description: Drosophila melanogaster S2 cells, cultured under standard conditions (1) were transiently transfected with the apoaequorin ORF (Radford J C, Davies S A, Dow J A. Systematic G-protein-coupled receptor analysis in Drosophila melanogaster identifies a leucokinin receptor with novel roles. J Biol Chem. 2002; 277:38810-38817) and a receptor ORF construct, and expression induced using CuSO4. Transfected S2 cells were harvested and incubated with 2.5 μM coelenterazine in the dark at RT for 1-2 h as described (ibid). 25,000 cells were then placed in 135 μl Schneider's medium supplemented with 10% FCS in a well of a white polystyrene 96-well plate (Berthold Technologies). Bioluminescence recordings were carried out using a Mithras LB940 automated 96-well plate reader (Berthold Technologies) and MikroWin software. 15 μl of each of different peptides were applied to final concentrations as required.
Peptides were tested at 10^−7M.
At the end of each recording samples were disrupted by the addition of 100 μl lysis solution, and the [Ca^2+] concentrations calculated as previously described (Rosay P, Davies S A, Yu Y, Sozen A, Kaiser K, et al. Cell-type specific calcium signalling in a Drosophila epithelium. J Cell Sci. 1997; 110:1683-1692).
For the Capa1 and Capa2 peptides, the relevant native control peptide (D. melanogaster Capa1 or Capa2 respectively) was used as a control. Control agonist activity was normalised to 100% and activity of neuropeptide analogues is expressed relative to that.

[1] = test system: aminopeptidase, endopeptidase, carboxypeptidase; assay type: in vitro ADME
Description: (§1) Enzyme digests were performed using aminopeptidase, endopeptidase, carboxypeptidase, or Drosophila melanogaster Malpighian tubule tissue extract. Peptide digests were performed in triplicate alongside ‘mock’ digests, where protease was substituted with water to determine peptide stability in aqueous media at 37° C. Several peptides were tested, including 1st generation AH56 and 3rs generation AH259. These are biostable in the presence of purified proteases for >24 hours; and for >3 hours to insect tissue extracts which are enriched for proteases.

[2] = assay type: in vitro ADME, Drosophila melanogaster
Description: as §1

[3] = test system: bumblebees (Bombus terrestris); test: Bumblebee acute oral toxicity test; assay type: in vivo

Question: With `CC(C)C[C@H](N=C(N(C)C)N(C)C)C(=O)N(C)[C@H](C(=O)N[C@@H](C)C(=O)N[C@@H](Cc1ccccc1)C(=O)N1CCC[C@H]1C(=O)N[C@@H](CCCNC(=N)N)C(=O)N[C@H](C(N)=O)C(C)C)C(C)C` [AH259, Guanidyl-L-(Me)V-AFPRV-NH2] as the molecule, how does the “CapaR Ca^2+ Agonist response” value (CapaR) read?
Answer: Its value is 12%.

Question: And the “biostable in the presence of purified proteases” value [1]?
Answer: The value was > 24 h.

Question: What about the “biostable to insect tissue extracts enriched for proteases” value [2] of the same molecule?
Answer: The value was > 3 h.

Question: What about the “lethal effect on bumblebees” value ([3]; 1×10^−5 M in 50% sucrose, 0.1% ATPlus, oral) of the same molecule?
Answer: The value was “No lethal effect”.

Question: And the “safety towards B. terrestris in the bumblebee oral toxicity assay” value ([3]; in vivo, po)?
Answer: Its value is “safe”.

From patent US20240373849A1, “INSECT NEUROPEPTIDE ANALOGUES” (THE UNIVERSITY COURT OF THE UNIVERSITY OF GLASGOW, priority 2020, published 2024)
